Measurements from the supplement of paper PMC11061612.

What was measured:
AZD1775 = compound: C=CCn1c(=O)c2cnc(Nc3ccc(N4CCN(C)CC4)cc3)nc2n1-c1cccc(C(C)(C)O)n1 [AZD1775]; settings: max 3 µM
Outline: (§1)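 Viability was measured with CellTiter-Glo 2.0 luminescence after 72 hours of dosing at a final DMSO of typically 0.2%, and scaled between blank-well and DMSO-well means. Beforehand, cancer cell lines sat 24 hours at 37°C and 5% CO2 in 1536-well plates in 7.5 μl DMEM/F12 or RPMI with 10% FBS. A non-linear mixed effects model fitted two-parameter logistic curves to the dose responses. The single-agent IC50 comes from these fits.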

AZD6738 = compound: C[C@@H]1COCCN1C2=NC(=NC(=C2)C3(CC3)[S@](=N)(=O)C)C4=C5C=CNC5=NC=C4 [AZD6738]; settings: max 10 µM
Outline: as §1

Taselisib = compound: Cc1nc(-c2cn3c(n2)-c2ccc(-c4cnn(C(C)(C)C(N)=O)c4)cc2OCC3)n(C(C)C)n1 [Taselisib]; settings: max 10 µM
Outline: as §1

Gemcitabine = compound: Nc1ccn([C@@H]2O[C@H](CO)[C@@H](O)C2(F)F)c(=O)n1 [Gemcitabine]; settings: max 0.3 µM
Outline: as §1

Paclitaxel = compound: CC(=O)O[C@H]1C(=O)[C@@]2(C)[C@H]([C@H](OC(=O)c3ccccc3)[C@]3(O)C[C@H](OC(=O)[C@H](O)[C@@H](NC(=O)c4ccccc4)c4ccccc4)C(C)=C1C3(C)C)[C@]1(OC(C)=O)CO[C@@H]1C[C@@H]2O [Paclitaxel]; settings: max 3 µM
Outline: as §1

AZD7648 = compound: Cc1cc2ncnn2cc1Nc1ncc2c(n1)n(C1CCOCC1)c(=O)n2C [AZD7648]; settings: max 10 µM
Outline: as §1

AZD4320 = compound: CN(CC[C@H](CSC1=CC=CC=C1)NC2=C(C=C(C=C2)S(=O)(=O)NC(=O)C3=CC=C(C=C3)N4CCC(CC4)[C@H](C5=CC=CC=C5C6=CC=C(C=C6)Cl)O)S(=O)(=O)C(F)(F)F)CCO [AZD4320]; settings: max 1 µM
Outline: as §1

Venetoclax = compound: CC1(C)CCC(CN2CCN(c3ccc(C(=O)NS(=O)(=O)c4ccc(NCC5CCOCC5)c([N+](=O)[O-])c4)c(Oc4cnc5[nH]ccc5c4)c3)CC2)=C(c2ccc(Cl)cc2)C1 [Venetoclax]; settings: max 1 µM
Outline: as §1

Carboplatin = compound: C1CC(C1)(C(=O)[O-])C(=O)[O-].N.N.[Pt+2] [Carboplatin]; settings: max 10 µM
Outline: as §1

SRA737 = compound: N#Cc1cnc(Nc2cc(NC[C@H]3CNCCO3)c(C(F)(F)F)cn2)cn1 [SRA737]; settings: max 10 µM
Outline: as §1

Selumetinib = compound: Cn1cnc2c(F)c(Nc3ccc(Br)cc3Cl)c(C(=O)NOCCO)cc21 [Selumetinib]; settings: max 10 µM
Outline: as §1

AZD5991 = compound: Cc1c2c(nn1C)CSCc1cc(n(C)n1)CSc1cc(c3ccccc3c1)OCCCc1c(C(=O)O)n(C)c3c-2c(Cl)ccc13 [AZD5991]; settings: max 1 µM
Outline: as §1

AZD0156 = compound: CN(C)CCCOc1ccc(-c2ccc3ncc4c(c3c2)n(C2CCOCC2)c(=O)n4C)cn1 [AZD0156]; settings: max 3 µM
Outline: as §1

Palbociclib = compound: CC(=O)c1c(C)c2cnc(Nc3ccc(N4CCNCC4)cn3)nc2n(C2CCCC2)c1=O [Palbociclib]; settings: max 10 µM
Outline: as §1

Prexasertib = compound: COc1cccc(OCCCN)c1-c1cc(Nc2cnc(C#N)cn2)n[nH]1 [Prexasertib]; settings: max 1 µM
Outline: as §1

Gefitinib = compound: COc1cc2ncnc(Nc3ccc(F)c(Cl)c3)c2cc1OCCCN1CCOCC1 [Gefitinib]; settings: max 10 µM
Outline: as §1

Dasatinib = compound: CC1=C(C(=CC=C1)Cl)NC(=O)C2=CN=C(S2)NC3=CC(=NC(=N3)C)N4CCN(CC4)CCO [Dasatinib]; settings: max 2 µM
Outline: as §1

Doxorubicin = compound: COc1cccc2c1C(=O)c1c(O)c3c(c(O)c1C2=O)C[C@@](O)(C(=O)CO)C[C@@H]3O[C@H]1C[C@H](N)[C@H](O)[C@H](C)O1 [Doxorubicin]; settings: max 1 µM
Outline: as §1

MK-2206 = compound: NC1(c2ccc(-c3nc4ccn5c(=O)[nH]nc5c4cc3-c3ccccc3)cc2)CCC1 [MK-2206]; settings: max 10 µM
Outline: as §1

Crizotinib = compound: C[C@@H](Oc1cc(-c2cnn(C3CCNCC3)c2)cnc1N)c1c(Cl)ccc(F)c1Cl [Crizotinib]; settings: max 10 µM
Outline: as §1

SN-38 = compound: CCc1c2c(nc3ccc(O)cc13)-c1cc3c(c(=O)n1C2)COC(=O)[C@]3(O)CC [SN-38]; settings: max 0.3 µM
Outline: as §1

Savolitinib = compound: C[C@@H](c1ccc2nccn2c1)n1nnc2ncc(-c3cnn(C)c3)nc21 [Savolitinib]; settings: max 1 µM
Outline: as §1

Lapatinib = compound: CS(=O)(=O)CCNCc1ccc(-c2ccc3ncnc(Nc4ccc(OCc5cccc(F)c5)c(Cl)c4)c3c2)o1 [Lapatinib]; settings: max 10 µM
Outline: as §1

AZD8186 = compound: C[C@@H](Nc1cc(F)cc(F)c1)c1cc(C(=O)N(C)C)cc2c(=O)cc(N3CCOCC3)oc12 [AZD8186]; settings: max 10 µM
Outline: as §1

AZD1390 = compound: CC(C)n1c(=O)n(C)c2cnc3cc(F)c(-c4ccc(OCCCN5CCCCC5)nc4)cc3c21 [AZD1390]; settings: max 0.3 µM
Outline: as §1

AZD2811 = compound: CCN(CCO)CCCOc1ccc2c(Nc3cc(CC(=O)Nc4cccc(F)c4)[nH]n3)ncnc2c1 [AZD2811]; settings: max 1 µM
Outline: as §1

[1] = compound: O=C(Nc1ccc2[nH]nc(-c3ccncc3)c2c1)[C@@H]1CCN(CC(=O)N2CCN(c3ccc(-c4ncccn4)cc3)CC2)C1; settings: max 5 µM
Outline: as §1

AZD5363 = compound: C1CN(CCC1(C(=O)N[C@@H](CCO)C2=CC=C(C=C2)Cl)N)C3=NC=NC4=C3C=CN4 [AZD5363]; settings: max 10 µM
Outline: as §1

AZD5153 = compound: COc1nnc2ccc(N3CCC(c4ccc(OCCN5CCN(C)C(=O)[C@H]5C)cc4)CC3)nn12 [AZD5153]; settings: max 1 µM
Outline: as §1

5-Fluorouracil = compound: O=c1[nH]cc(F)c(=O)[nH]1 [5-Fluorouracil]; settings: max 20 µM
Outline: as §1

Alisertib = compound: COc1cc(Nc2ncc3c(n2)-c2ccc(Cl)cc2C(c2c(F)cccc2OC)=NC3)ccc1C(=O)O [Alisertib]; settings: max 10 µM
Outline: as §1

Etoposide = compound: COc1cc([C@@H]2c3cc4c(cc3[C@@H](O[C@@H]3O[C@@H]5CO[C@@H](C)O[C@H]5[C@H](O)[C@H]3O)[C@H]3COC(=O)[C@H]23)OCO4)cc(OC)c1O [Etoposide]; settings: max 10 µM
Outline: as §1

SG3199 = compound: CC1=CN2[C@@H](C1)C=NC3=CC(=C(C=C3C2=O)OC)OCCCCCOC4=C(C=C5C(=C4)N=C[C@@H]6CC(=CN6C5=O)C)OC [SG3199]; settings: max 0.001 µM
Outline: as §1

Olaparib = compound: O=C(c1cc(Cc2n[nH]c(=O)c3ccccc23)ccc1F)N1CCN(C(=O)C2CC2)CC1 [Olaparib]; settings: max 10 µM
Outline: as §1

Trametinib = compound: CC(=O)Nc1cccc(-n2c(=O)n(C3CC3)c(=O)c3c(Nc4ccc(I)cc4F)n(C)c(=O)c(C)c32)c1 [Trametinib]; settings: max 1 µM
Outline: as §1

| Cell Line | IC50, cell viability 72 h (AZD1775) | IC50, cell viability 72 h (AZD6738) | IC50, cell viability 72 h (Taselisib) | IC50, cell viability 72 h (Gemcitabine) | IC50, cell viability 72 h (Paclitaxel) | IC50, cell viability 72 h (AZD7648) | IC50, cell viability 72 h (AZD4320) | IC50, cell viability 72 h (Venetoclax) | IC50, cell viability 72 h (Carboplatin) | IC50, cell viability 72 h (SRA737) | IC50, cell viability 72 h (Selumetinib) | IC50, cell viability 72 h (AZD5991) | IC50, cell viability 72 h (AZD0156) | IC50, cell viability 72 h (Palbociclib) | IC50, cell viability 72 h (Prexasertib) | IC50, cell viability 72 h (Gefitinib) | IC50, cell viability 72 h (Dasatinib) | IC50, cell viability 72 h (Doxorubicin) | IC50, cell viability 72 h (MK-2206) | IC50, cell viability 72 h (Crizotinib) | IC50, cell viability 72 h (SN-38) | IC50, cell viability 72 h (Savolitinib) | IC50, cell viability 72 h (Lapatinib) | IC50, cell viability 72 h (AZD8186) | IC50, cell viability 72 h (AZD1390) | IC50, cell viability 72 h (AZD2811) | IC50, cell viability 72 h [1] | IC50, cell viability 72 h (AZD5363) | IC50, cell viability 72 h (AZD5153) | IC50, cell viability 72 h (5-Fluorouracil) | IC50, cell viability 72 h (Alisertib) | IC50, cell viability 72 h (Etoposide) | IC50, cell viability 72 h (SG3199) | IC50, cell viability 72 h (Olaparib) | IC50, cell viability 72 h (Trametinib) |
| --- | --- | --- | --- | --- | --- | --- | --- | --- | --- | --- | --- | --- | --- | --- | --- | --- | --- | --- | --- | --- | --- | --- | --- | --- | --- | --- | --- | --- | --- | --- | --- | --- | --- | --- | --- |
| H4 (Low Grade Glioma) | 108 nM | 3.6 µM | 3.68 µM | 22.3 nM | 32.4 nM | > 10 µM | > 1000 nM | > 1000 nM | > 10 µM | > 10 µM | > 10 µM | > 1000 nM | > 3000 nM | 6.45 µM | 60.4 nM | > 10 µM | > 2000 nM | 157 nM | > 10 µM | 3000 nM | 23.3 nM | > 1000 nM | > 10 µM | 3.8 µM | > 300 nM | > 1000 nM | > 5 µM | 6.25 µM | 164 nM | 9.69 µM | 312 nM | 2000 nM | > 1 nM | > 10 µM | > 1000 nM |
| HCC38 (Breast Carcinoma) | 430 nM | > 10 µM | > 10 µM | 172 nM | 296 nM | > 10 µM | 503 nM | > 1000 nM | > 10 µM | > 10 µM | > 10 µM | > 1000 nM | > 3000 nM | > 10 µM | 80.4 nM | > 10 µM | > 2000 nM | > 1000 nM | > 10 µM | > 10000 nM | 69.5 nM | > 1000 nM | > 10 µM | > 10 µM | > 300 nM | > 1000 nM | > 5 µM | > 10 µM | > 1000 nM | > 20 µM | > 10000 nM | > 10000 nM | > 1 nM | > 10 µM | > 1000 nM |
| TC-YIK (Other Solid Carcinomas) | 576 nM | 1.93 µM | > 10 µM | 31.3 nM | 4.02 nM | > 10 µM | 57 nM | > 1000 nM | > 10 µM | 4.37 µM | 7.13 µM | > 1000 nM | > 3000 nM | > 10 µM | – | > 10 µM | > 2000 nM | – | > 10 µM | 2500 nM | 1.86 nM | > 1000 nM | > 10 µM | > 10 µM | > 300 nM | 21.9 nM | 2.73 µM | > 10 µM | 20.2 nM | > 20 µM | – | 1640 nM | – | > 10 µM | 156 nM |
